Measured values: patent US10696615B2, “Prenylated hydroxystilbenes” (The University of Sydney, priority 2011, dated 2020)

How the values were obtained:
Assay type in all cases: cell-based, human
K-562 = assay: NCI in vitro cancer screen, Leukemia; conditions: K-562, Leukemia
A549/ATCC = assay: NCI in vitro cancer screen, Non-Small Cell Lung Cancer; conditions: Non-Small Cell Lung Cancer
OVCAR-8 = assay: NCI in vitro cancer screen, Ovarian Cancer; conditions: OVCAR-8, Ovarian Cancer
SF-295 = assay: NCI in vitro cancer screen, CNS Cancer; conditions: SF-295, CNS Cancer
EKVX = assay: NCI in vitro cancer screen, Non-Small Cell Lung Cancer; conditions: Non-Small Cell Lung Cancer
SK-OV-3 = assay: NCI in vitro cancer screen, Ovarian Cancer; conditions: SK-OV-3, Ovarian Cancer
SR = assay: NCI in vitro cancer screen, Leukemia; conditions: Leukemia
SNB-19 = assay: NCI in vitro cancer screen, CNS Cancer; conditions: SNB-19, CNS Cancer
NCI-H522 = assay: NCI in vitro cancer screen, Non-Small Cell Lung Cancer; conditions: NCI-H522, Non-Small Cell Lung Cancer
OVCAR-3 = assay: NCI in vitro cancer screen, Ovarian Cancer; conditions: OVCAR-3, Ovarian Cancer
HS 578T = assay: NCI in vitro cancer screen, Breast Cancer; conditions: Breast Cancer
HCC-2998 = assay: NCI in vitro cancer screen, Colon Cancer; conditions: HCC-2998, Colon Cancer
MDA-MB-468 = assay: NCI in vitro cancer screen, Breast Cancer; conditions: MDA-MB-468, Breast Cancer
SNB-75 = assay: NCI in vitro cancer screen, CNS Cancer; conditions: SNB-75, CNS Cancer
DU-145 = assay: NCI in vitro cancer screen, Prostate Cancer; conditions: DU-145, Prostate Cancer
NCI-H322M = assay: NCI in vitro cancer screen, Non-Small Cell Lung Cancer; conditions: Non-Small Cell Lung Cancer
SK-MEL-5 = assay: NCI in vitro cancer screen, Melanoma; conditions: SK-MEL-5, Melanoma
SW-620 = assay: NCI in vitro cancer screen, Colon Cancer; conditions: SW-620, Colon Cancer
786-0 = assay: NCI in vitro cancer screen, Renal Cancer; conditions: 786-0, Renal Cancer
HCT-116 = assay: NCI in vitro cancer screen, Colon Cancer; conditions: HCT-116, Colon Cancer
MCF7 = assay: NCI in vitro cancer screen, Breast Cancer; conditions: MCF7, Breast Cancer
RXF-393 = assay: NCI in vitro cancer screen, Renal Cancer; conditions: RXF 393, Renal Cancer
[1] = test system: MDA-MB-231 (MDA-MB-231/ATCC); assay: NCI in vitro cancer screen, Breast Cancer; conditions: MDA-MB-231/ATCC, Breast Cancer
UACC-257 = assay: NCI in vitro cancer screen, Melanoma; conditions: UACC-257, Melanoma
MDA-MB-435 = assay: NCI in vitro cancer screen, Melanoma; conditions: MDA-MB-435, Melanoma
ACHN = assay: NCI in vitro cancer screen, Renal Cancer; conditions: Renal Cancer
SK-MEL-28 = assay: NCI in vitro cancer screen, Melanoma; conditions: SK-MEL-28, Melanoma
NCI-H226 = assay: NCI in vitro cancer screen, Non-Small Cell Lung Cancer; conditions: NCI-H226, Non-Small Cell Lung Cancer
M14 = assay: NCI in vitro cancer screen, Melanoma; conditions: M14, Melanoma
IGROV1 = assay: NCI in vitro cancer screen, Ovarian Cancer; conditions: IGROV1, Ovarian Cancer
[2] = Homo sapiens, read-out: LC50 (the source's name)

## CC(C)=CCOc1cc(O)cc(/C=C/c2ccc(O)c(O)c2)c1CC=C(C)C [USYDS14, (E)-2-(3-methyl-2-buten-1-yl)-3-(3-methyl-2-butenyloxy)-3′,4′,5-trihydroxystilbene]
K-562; Homo sapiens, K562
  GI50: 0.833 µM
K-562; Homo sapiens, K562, read-out: LC50 (the source's name)
  CC50: > 100 µM
K-562
  TGI: 14.2 µM
A549/ATCC; Homo sapiens
  GI50: 4.33 µM
A549/ATCC; [2]
  CC50: 45.5 µM
A549/ATCC
  TGI: 16.5 µM
OVCAR-8; Homo sapiens
  GI50: 3.59 µM
OVCAR-8; [2]
  CC50: 64.9 µM
OVCAR-8
  TGI: 15.6 µM
SF-295; Homo sapiens
  GI50: 3.91 µM
SF-295; [2]
  CC50: 43.1 µM
SF-295
  TGI: 15.3 µM
EKVX; Homo sapiens
  GI50: 6.45 µM
EKVX; [2]
  CC50: 51.7 µM
EKVX
  TGI: 21.2 µM
SK-OV-3; Homo sapiens
  GI50: 2.85 µM
SK-OV-3; [2]
  CC50: 37.2 µM
SK-OV-3
  TGI: 13.7 µM
SR; Homo sapiens
  GI50: 0.67 µM
SR; [2]
  CC50: > 100 µM
SR
  TGI: 24.6 µM
SNB-19; Homo sapiens
  GI50: 5.01 µM
SNB-19; [2]
  CC50: 52.2 µM
SNB-19
  TGI: 20.1 µM
NCI-H522; Homo sapiens
  GI50: 0.75 µM
NCI-H522; [2]
  CC50: 5.85 µM
NCI-H522
  TGI: 2.26 µM
OVCAR-3; Homo sapiens
  GI50: 3.52 µM
OVCAR-3; [2]
  CC50: 41.1 µM
OVCAR-3
  TGI: 13.5 µM
HS 578T
  TGI: 20.5 µM
HS 578T; Homo sapiens
  GI50: 2.71 µM
HS 578T; [2]
  CC50: > 100 µM
HCC-2998
  TGI: 10.6 µM
HCC-2998; Homo sapiens
  GI50: 2.9 µM
HCC-2998; [2]
  CC50: 40.7 µM
MDA-MB-468; Homo sapiens
  GI50: 1.42 µM
MDA-MB-468; [2]
  CC50: 16.4 µM
MDA-MB-468
  TGI: 4.12 µM
SNB-75; Homo sapiens
  GI50: 1.79 µM
SNB-75; [2]
  CC50: 29.3 µM
SNB-75
  TGI: 7.8 µM
DU-145
  TGI: 21.1 µM
DU-145; Homo sapiens
  GI50: 8.2 µM
DU-145; [2]
  CC50: 47.5 µM
NCI-H322M; Homo sapiens
  GI50: 12.5 µM
  LC50 (50% lethal concentration): 52.8 µM
NCI-H322M
  TGI: 25.7 µM
SK-MEL-5; Homo sapiens
  GI50: 0.554 µM
SK-MEL-5; [2]
  CC50: 4.46 µM
SK-MEL-5
  TGI: 1.87 µM
SW-620; Homo sapiens
  GI50: 2.88 µM
SW-620; [2]
  CC50: 63.8 µM
SW-620
  TGI: 16.7 µM
786-0
  TGI: 11.8 µM
786-0; Homo sapiens
  GI50: 3.44 µM
  LC50 (50% net cell kill): 40 µM
HCT-116
  TGI: 16 µM
HCT-116; Homo sapiens
  GI50: 4.2 µM
  LC50 (concentration killing 50% of cells): 46.6 µM
MCF7; Homo sapiens
  GI50: 2.74 µM
MCF7; [2]
  CC50: 41.9 µM
MCF7
  TGI: 11.8 µM
RXF-393; Homo sapiens
  GI50: 1.07 µM
RXF-393; [2]
  CC50: 14.8 µM
RXF-393
  TGI: 3.58 µM
[1]; Homo sapiens
  GI50: 3.15 µM
[1]; [2]
  CC50: 45.3 µM
[1]
  TGI: 14.3 µM
UACC-257; Homo sapiens
  GI50: 10.2 µM
UACC-257; [2]
  CC50: 54 µM
UACC-257
  TGI: 23.5 µM
MDA-MB-435; Homo sapiens
  GI50: 0.373 µM
MDA-MB-435; [2]
  CC50: 40 µM
MDA-MB-435
  TGI: 8.45 µM
ACHN; Homo sapiens
  GI50: 2.98 µM
ACHN; [2]
  CC50: 36.5 µM
ACHN
  TGI: 12.5 µM
SK-MEL-28; Homo sapiens
  GI50: 3.05 µM
  LC50: 41.6 µM
SK-MEL-28
  TGI: 16.4 µM
NCI-H226; Homo sapiens
  GI50: 1.72 µM
  LC50 (50% lethal concentration): 7.52 µM
NCI-H226
  TGI: 3.6 µM
M14; Homo sapiens
  GI50: 2.95 µM
M14; [2]
  CC50: 50 µM
M14
  TGI: 13.6 µM
IGROV1; Homo sapiens, IGROV-1
  GI50: 3.65 µM
IGROV1; Homo sapiens, IGROV-1, read-out: LC50 (the source's name)
  CC50: 65.4 µM
IGROV1
  TGI: 13.7 µM
